US10076505B2, “Inhalation formulations of Treprostinil” (priority 2003, dated 2018)

Experiments:
[1] = tested on: human pulmonary arterial smooth muscle cells; settings: cited from earlier work
sheep [2] = assay: Intravenous and aerosolized UT-15 dose response on baseline hemodynamics (Example IV); format: in vivo; settings: baseline conditions; for PCV relative to baseline: any dose; for CO relative to baseline: any delivery rate; for PSYS: any rate
Experimental: Six yearling sheep (3 males, 3 females; 21-37 kg) were fasted 18-24 hours and initially anesthetized with a short acting barbiturate (thiopental) to allow intubation of the sheep. Halothane gas anesthesia (1.5-2.5%) was then used for the surgical procedures. Via a left thoracotomy, a Transonic blood flow probe was placed around the main pulmonary artery, silastic catheters placed in the main pulmonary artery and left atrium. After approximately 7 days the sheep were reanesthetized and the left carotid artery cannulated, a Cordis Introducer Sheath inserted in the left jugular vein, and a tracheotomy made. The sheep were allowed to recover for another 3-5 days prior to experimentation. These sheep were used to allow measurement of pulmonary arterial pressure (PPA), left atrial pressure (PLA), central venous pressure (PCV), systemic arterial pressure (PSYS), heart rate (HR), and cardiac output (CO) after baseline measurements were made for a minimum of 30 minutes. Two separate experiments were conducted to determine the dose response effects of intravenously infused UT-15 on baseline hemodynamics and aerosolized UT-15 on baseline hemodynamics. For the infusion experimental protocol, after a 30 minute baseline was established, UT-15 was infused intravenously at 3 rates (250, 500 and 1000 ng per kg per min). In three sheep, the infusion rates lasted for 30 minutes each, and for the other three sheep, the infusions were for 60 minutes each. […] Again, three sheep were aerosolized for 30 minutes and the other three sheep were aerosolized for 60 minutes.

[3] = tested on: patients with class III or class IV heart failure; settings: cited from earlier work
sheep [4] = assay: Aerosolized UT-15 at high doses on baseline hemodynamics (Example III); format: in vivo
Description: The efficacy of benzindene prostaglandins, such as UT-15, for treating pulmonary hypertension can be assessed by determining the hemodynamics associated with pulmonary hypertension. In particular, measurements of pulmonary arterial pressure (PPA), left atrial pressure (PLA), central venous pressure (PCV), systemic arterial pressure (PSYS), heart rate (HR), and cardiac output (CO) are useful in determining the effects of benzindene prostaglandins delivered by inhalation or parenterally.
Although pulmonary arterial pressure can be directly measured and is often used to quantify pulmonary arterial hypertension, PPA can be affected by 3 other variables: CO, PLA and PVR, as indicated by Equation 1: PPA=(CO*PVR)+PLA (1)
On the other hand, PVR can not be directly measured and must be calculated by the following Equation 2: PVR=(PPA−PLA)/CO (2)
Heart rate was determined by measuring the time (seconds) required for 25 heart beats to occur (t25) as indicated by the pulsations on the blood flow meter; the beats per minute (BPM) were calculated by the following equation: BPM=(25 beats/t25)*60 seconds
All pressure may be monitored by commercially available transducers, such as Model 1290A HEWLETT PACKARD™ transducer (Andover, Mass.), which is attached to VALIDYNE CD19A Carrier Dmod. Amplifiers (Northridge, Calif.). Cardiac output may be measured by a Transonic Systems T101 Ultrasonic Bloodflow Meter (Ithaca, N.Y.). The pressure and blood flow signals may be recorded on ASTROMED MT-9500 Stripchart Recorder (West Warwick, R.I.) and digitally recorded with a personal computer using Easy Data Acquisition Software (Nashville, Tenn.).
Six yearling sheep (3 males, 3 females; 21-37 kg) were fasted 18-24 hours and initially anesthetized with a short acting barbiturate (thiopental) to allow intubation of the sheep. Halothane gas anesthesia (1.5-2.5%) was then used for the surgical procedures. Via a left thoracotomy, a Transonic blood flow probe was placed around the main pulmonary artery, silastic catheters placed in the main pulmonary artery and left atrium. After approximately 7 days the sheep were reanesthetized and the left carotid artery cannulated, a Cordis Introducer Sheath inserted in the left jugular vein, and a tracheotomy made. The sheep were allowed to recover for another 3-5 days prior to experimentation. These sheep were used to allow measurement of pulmonary arterial pressure (PPA), left atrial pressure (PLA), central venous pressure (PCV), systemic arterial pressure (PSYS), heart rate (HR), and cardiac output (CO) after baseline measurements were made for a minimum of 30 minutes.
Baseline measurements consisted of 30 minutes of monitoring during vehicle/saline aerosolization (0.28 ml/min). […]

[5] = 3800-5700 ng per kg per min, 90 minutes

For `CCCCC[C@H](O)CC[C@@H]1[C@H]2Cc3cccc(OCC(=O)O)c3C[C@H]2C[C@H]1O` [UT-15, 9-deoxy-2′,9-alpha-methano-3-oxa-4,5,6-trinor-3,7-(1′,3′-interphenylene)-13,14-dihydro-prostaglandin F1], the “proliferation of human pulmonary arterial smooth muscle cells” value [1] is listed as “inhibits proliferation”, the “PCV relative to baseline” value (sheep [2]; aerosol) is listed as “no statistical difference” and the “PLA relative to baseline” value (sheep [2]; aerosolized (mean values increased)) is listed as “neither intravenous nor aerosolized UT-15 caused PLA to significantly change”. The heart rate (sheep [2]; aerosolized, 3 rates) was “no effect”, the “pulmonary vascular driving pressure (PPA minus PLA) change from baseline” value (sheep [2]; aerosolized, 250, 500, and 100 ng per kg per min) was “significant” and the PVR (sheep [2]; aerosolized, all 3 delivery rates) was “significant decrease”. The “CO relative to baseline” value (sheep [2]; aerosolized) was “no significant changes”, the PSYS (sheep [2]; aerosolized) was “no significant effect” and the “PPA relative to baseline” value (sheep [2]; aerosolized, not statistically different) was “general trend for PPA to decrease”. The PVR (sheep [2]; intravenous) was “no significant effect”, the heart rate (sheep [2]; intravenous 250, 500 and 1000 ng per kg per min) was “significantly increased” and the “PLA relative to baseline” value (sheep [2]; intravenous (mean values decreased)) was “neither intravenous nor aerosolized UT-15 caused PLA to significantly change”. The “CO relative to baseline” value (sheep [2]; intravenous) was “no significant changes”, the “PCV relative to baseline” value (sheep [2]; intravenous) was “no statistical difference” and the PSYS (sheep [2]; intravenous) was “no significant effect”. The “PPA relative to baseline” value (sheep [2]; intravenous, same as PCV (no statistical difference)) was “The same effects were also observed”, the vasodilator effects [3] was “vasodilator effects” and the “PPA decrease relative to baseline” value (sheep [4]; [5]) was “approximately 18%”. The “PSYS decrease relative to baseline” value (sheep [4]; [5]) was 7.5%, the “PVR decrease relative to baseline” value (sheep [4]; [5]) was “approximately 19%” and the “non-lung effects (heart rate, cardiac output)” value (sheep [4]; high doses) was “without significant non-lung effects”.
